Experimental data taken from patent publication US4647571A, “Cysteine delivery composition” (Cornell Research Foundation, priority 1982, dated 1987).
Values joined by “and” are separate entries in the source; they are usually repeats but may differ in a detail not shown here. Equal values may be shown once. Values belong to the molecule of their own block, whether it stands above or below them.

What was measured:
5-oxo-L-prolinase [1] = molecular target: T1, 5-oxo-L-prolinase (Rattus norvegicus, UniProt P97608); test: Action of 5-oxo-L-prolinase on substrates (products formed); assay type: biochemical; conditions: for Products Formed: ADP: 5 mM ATP, 30 min at 37° C., pyruvate kinase-lactate dehydrogenase coupled assay; for Reaction on incubation with 5-oxo-L-prolinase: in the presence of ATP
T1 construct: 5-Oxo-L-prolinase was isolated from rat kidney and freed of 5-oxoproline by gel filtration; from tissue; host or cells: rat kidney
T1 sequence (P97608 1-1288): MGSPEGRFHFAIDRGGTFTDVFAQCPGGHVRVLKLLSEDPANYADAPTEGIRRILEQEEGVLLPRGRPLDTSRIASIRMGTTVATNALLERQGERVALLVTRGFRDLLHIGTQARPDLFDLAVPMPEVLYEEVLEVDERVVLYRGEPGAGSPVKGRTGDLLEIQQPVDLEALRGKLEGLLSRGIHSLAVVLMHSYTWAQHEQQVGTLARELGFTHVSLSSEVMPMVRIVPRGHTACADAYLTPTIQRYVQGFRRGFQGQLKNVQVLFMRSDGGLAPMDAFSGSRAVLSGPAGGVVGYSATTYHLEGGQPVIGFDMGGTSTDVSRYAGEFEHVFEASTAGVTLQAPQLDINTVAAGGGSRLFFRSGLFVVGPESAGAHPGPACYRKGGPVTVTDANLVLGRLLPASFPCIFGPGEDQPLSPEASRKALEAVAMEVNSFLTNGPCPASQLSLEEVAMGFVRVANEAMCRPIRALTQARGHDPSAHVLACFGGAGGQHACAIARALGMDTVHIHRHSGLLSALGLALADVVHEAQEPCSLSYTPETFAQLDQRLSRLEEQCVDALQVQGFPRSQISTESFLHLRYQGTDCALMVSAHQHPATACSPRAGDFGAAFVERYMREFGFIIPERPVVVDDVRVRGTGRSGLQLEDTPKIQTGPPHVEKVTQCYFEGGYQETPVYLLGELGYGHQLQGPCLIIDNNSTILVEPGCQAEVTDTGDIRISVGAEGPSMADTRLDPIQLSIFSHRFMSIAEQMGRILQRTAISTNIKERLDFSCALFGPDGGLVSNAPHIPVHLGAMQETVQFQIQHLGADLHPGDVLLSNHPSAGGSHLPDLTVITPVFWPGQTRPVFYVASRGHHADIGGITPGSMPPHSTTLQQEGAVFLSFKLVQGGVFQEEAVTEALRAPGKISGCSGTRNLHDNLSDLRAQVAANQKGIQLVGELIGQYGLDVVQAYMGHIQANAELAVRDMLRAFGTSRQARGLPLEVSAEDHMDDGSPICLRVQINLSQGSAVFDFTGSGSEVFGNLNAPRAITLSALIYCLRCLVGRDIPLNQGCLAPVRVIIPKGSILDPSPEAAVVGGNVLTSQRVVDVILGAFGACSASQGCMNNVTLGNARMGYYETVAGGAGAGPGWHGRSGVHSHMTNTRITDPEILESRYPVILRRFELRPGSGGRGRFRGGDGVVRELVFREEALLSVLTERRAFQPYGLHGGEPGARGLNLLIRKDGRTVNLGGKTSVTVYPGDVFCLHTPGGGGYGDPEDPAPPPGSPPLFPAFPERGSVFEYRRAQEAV
Experimental: (§1) In the experiments the reaction mixtures were made up to contain (final volume 0.5 ml) 100 mM Na Hepes (Na salt of N-2-hydroxyethylpiperizine-N'-2ethanesulfonic acid) buffer (pH 8.0), 150 mM KCl, 8 mM MgCl2, 2 mM phosphoenolpyruvate, 5 mM ATP (adenosine triphosphate), pyruvate kinase, in excess, 20 micrograms of 5-oxoprolinase, and the substrate as indicated.
(§2) The L-and D-isomers of 2-oxothiazolidine-4-carboxylate were synthesized by the method set out in Kaneko et al, Bull, Chem. Soc. (Japan) vol. 37, pp. 242-4 (1964) as modified by the method of Shah et al, Cancer Research vol. 39, pp. 3942-7 (1979). 5-Oxo-L-prolinase was isolated from rat kidney and freed of 5-oxoproline by gel filtration. Other chemicals and materials were obtained commercially.
(§3) After incubation ofr 30 min. at 37° C., the reaction mixtures were treated with 0.1 volume of 1 M HCl, and placed at 0° C. for 5 min.; and an equivalent volume of 1 M 2-amino-2-hydroxylmethyl-1,3,-propanediol was added. Portions were analyzed for amino acids by use of a Durrum Model 500 amino acid analyzer. Cysteine was also determined in some experiments by reaction with 5,5'-dithiobis (2-initrobenzoate) (DTNB).

5-oxo-L-prolinase [2] = molecular target: T1, 5-oxo-L-prolinase; test: Inhibition of utilization of 5-oxo-L-proline (glutamate formation) by the purified enzyme; assay type: biochemical; conditions: 1 mM 5-oxo-L-proline
Experimental: as §1, §2, §3
Energy for the reaction is supplied by the cleavage of ATP. […] The ratio of ADP to cysteine produced increased with time due undoubtedly to the loss of cysteine due to oxidation.

hepatic glutathione = test: Hepatic glutathione level after injection; assay type: in vivo, mice; conditions: for hepatic glutathione level relative to controls: mice fasted overnight, 6.5 mmol/kilo intraperitoneally (D-isomer: equivalent doses)
Experimental: The effect of injecting mice with L-2-oxothiazolidine-4-carboxylate on the level of hepatic gluathione was studies. […] The maximal effect was observed about 4 hours after injection. […] These findings are indicative of in vivo formation of cysteine after administration of L-2- oxothiazolidine-4-carboxylate.
Mice fasted overnight were injected intraperitoneally with NaCl (controls; dashed line) or with Na L-2-oxothiazolidine-4-carboxylate (6.5 mmol/kilo). At intervals, the mice were sacrificed and the excised liver was homogenized in 5 volumes of 1% picric acid. After centrifugation, the protein-free supernatant solutions were analyzed for glutathione by the method of Tietze, Anal. Biochem 27, 502-22(1969). Analyses were carried out in duplicate. In a number of instances, these values were checked by the 2-vinylpyridine procedure of Griffith, Anal. Biochem. 106; 207-12(1980); good agreement between the two methods was observed. In the figure, the points are mean values and the bars indicate the average deviation from the mean. The numbers in parentheses give the number of animals used. The value for the controls was 4.40±0.9 umol/g.

5-oxoproline metabolism [3] = conditions: previous studies of the inventors; cited from earlier work
metabolism of glutamate = test: In vivo metabolism of L-[14C]glutamate (respiratory 14CO2); conditions: mice, 2.5 mmol/kilo intraperitoneally
Experimental: (§4) The in vitro results showing that L-2-oxothiazolidine-4-carboxylate inhibits utilization of 5-oxoproline were confirmed by in vivo experiments. In the latter, animals were injected with 5-oxo-L-[^14 C] proline and the respiratory [^14 CO2 ] produced was collected and measured for several hours. […] However, L-2- oxothiazolidine-4-carboxylate is a much more efficient inhibitor.
(§5) FIG. 3depicts the inhibition of 5-oxoproline metabolism by L-2- oxothiazolidine-4-carboxylate. Mice fasted overnight were injected intraperitoneally with NaCl (Curve 1; open symbols; controls) or with Na L-2-oxothiazolidine-4-carboxylate (2.5 mmol/kilo) (Curve 2; closed symbols). After 10 min., the mice were injected subcutaneously with 5-oxo-L-[^14 C] proline (A) or with L-[^14 C] glutamate (B) (0.02 mmol; 1.1×10^6 cpm). The mice were then placed in metabolic chambers and the respiratory CO2 was collected in ethanolamine/methanol, 1:4 (vol/vol). In A, each curve represents the results on 3 animals; the points are mean values and the bars represent standard deviations from the mean. In B, each curve represents the average of closely-agreeing results obtained from 2 animals.

liver glutathione = test: Hepatic glutathione in mice depleted of glutathione (acetoaminophenol); assay type: in vivo
Experimental: Administration of this compound therefore provides a way of getting cysteine into cells. One cannot give cysteine itself without complications since this amino acid is toxic extracellularly. However, when the L-oxothiazolidine compound is injected it enters the cell where it is split giving rise to cysteine within the cell. In a number of clinical situations, for example, after poisoning with excessive pain-killing drugs, e.g., those containing active ingredients known as N-acetyl-para-aminophenol, paracetamol, and acetaminophen, the liver glutathione levels decrease markedly. When cysteine is supplied to liver cells, additional glutathione can be synthesized and thus serve usefully in detoxifying the offending drug. Therefore, L-2-oxothiazolidine-4-carboxylate serves as an intracellular delivery system for cysteine and has potential as a therapeutic agent in situations in which there is depletion of liver glutathione. After acetoaminophenol is given to experimental animals such as mice, the liver glutathione declines rapidly because it is extensively utilized by reaction with the drug. […] For human treatment the L-isomer, preferably in the form of its neutral salt is administered directly into the gastro-intestinal tract or introduced intravenously.

5-oxoproline metabolism [4] = test: In vivo inhibition of 5-oxoproline metabolism (respiratory 14CO2 after 5-oxo-L-[14C]proline); design: species or system mice
Experimental: as §4, §5

tissue cysteine = test: Tissue/liver cysteine after administration; assay type: in vivo, mice

calculated Vmax value (5-oxo-L-prolinase [1]; compared with the L-isomer): higher than that found for the L-isomer | Products Formed: ADP (5-oxo-L-prolinase [1]; substrate 2 mM): 924 nmol | Products Formed: Amino Acid (as glutamate) (5-oxo-L-prolinase [1]; substrate 2 mM, as glutamate): 916 nmol
Compound: O=C1CC[C@@H](C(=O)O)N1 [5-Oxo-L-proline, 5-oxo-L-proline]

Reaction on incubation with 5-oxo-L-prolinase (5-oxo-L-prolinase [1]): No reaction was observed | Products Formed: ADP (5-oxo-L-prolinase [1]; substrate 5 mM): 96 nmol | Products Formed: Amino Acid (5-oxo-L-prolinase [1]; substrate 5 mM, after reduction with KBH4 and reaction with iodoacetamide, footnote: less than 20 nmol): 0 nmol | inhibition of glutamate formation (in words) (5-oxo-L-prolinase [2]; same conditions): did not inhibit glutamate formation
Compound: O=C1N[C@@H](C(=O)O)CS1 [D-2-oxothiazolidine-4-carboxylate]
hepatic glutathione level relative to controls (hepatic glutathione): No such stimulation was observed

Products Formed: ADP (5-oxo-L-prolinase [1]; substrate 2 mM): 930 nmol | Products Formed: Amino Acid (5-oxo-L-prolinase [1]; substrate 2 mM, footnote: less than 5 nmol): 0 nmol
Compound: O=C1NC[C@@H](C(=O)O)N1 [L-2-imidazolidone-4-carboxylate]
in vivo metabolism of 5-oxoproline (5-oxoproline metabolism [3]): markedly inhibits

Reaction on incubation with 5-oxo-L-prolinase (5-oxo-L-prolinase [1]): rapid formation of ADP and cysteine | Products Formed: ADP (5-oxo-L-prolinase [1]; substrate 2 mM): 478 nmol and 499 nmol | Products Formed: Amino Acid (5-oxo-L-prolinase [1]; substrate 2 mM, after conversion to cystine): 463 nmol | Products Formed: Amino Acid (5-oxo-L-prolinase [1]; substrate 2 mM, determined after reduction with KBH4 and reaction with iodoacetamide): 466 nmol | inhibition at 1000 µM (5-oxo-L-prolinase [2]; inhibitor 1 mM): 73% | inhibition at 5000 µM (5-oxo-L-prolinase [2]; inhibitor 5 mM): 92% | inhibition at 10000 µM (5-oxo-L-prolinase [2]; inhibitor 10 mM): 97%
Compound: O=C1N[C@H](C(=O)O)CS1 [L-2-oxothiazolidine-4-carboxylate]
apparent Km value (5-oxo-L-prolinase [1]; compared with the natural substrate): somewhat lower than that found for the natural substrate | effect on the metabolism of glutamate (metabolism of glutamate): does not have a significant effect | liver glutathione after acetoaminophenol (liver glutathione; mice, given even two hours after the drug): an increase in liver glutathione occurs | hepatic glutathione levels in mice depleted of hepatic glutathione (liver glutathione; mouse, in vivo): restoration of normal hepatic glutathione levels | formation of respiratory 14CO2 from 5-oxo-L-[14C]proline (5-oxoproline metabolism [4]; mice, 2.5 mmol/kilo intraperitoneally 10 min before label): marked decrease | in vivo inhibitory activity relative to L-2-imidazolidone-4-carboxylate (5-oxoproline metabolism [4]; on a molar basis): at least four times more active | injected 5-oxo-L-[14C]proline dose excreted in urine (5-oxoproline metabolism [4]; treated animals, none found in the urine of the controls): about 16 % of the injected dose | hepatic glutathione level relative to controls (hepatic glutathione): about twice those of the controls | time of maximal effect on hepatic glutathione after injection (hepatic glutathione; mice, 6.5 mmol/kilo intraperitoneally): about 4 hours | cysteine content of tissues (tissue cysteine; administration to animals): increase in the cysteine content of tissues, especially the liver | free cysteine in acid extracts of the livers (tissue cysteine; amino acid analysis after dithiothreitol reduction and 2-vinylpyridine derivatization): No free cysteine was detected
